Key:
Type in all cases: cell-based, human
HCFs = test: LH/FSH ratio in 3D constructs after DHEA, Estrone, Estriol stimulation (Western blot); conditions: HCFs (cells from Healthy individuals), 4 weeks, FIGS. 9A to 9C
From the text: (§1) In FIGS. 9A to 9C, healthy corneas were obtained from the National Disease Research Interchange (NDRI). KC corneas were obtained from individuals immediately following corneal transplantation. Inclusion/exclusion criteria for healthy controls required absence of ophthalmic disease, diabetes, or infectious conditions. Tissue from KC patients who had previously undergone collagen crosslinking was excluded. Corneal stromal cells were isolated from healthy (HCFs) and KC (HKCs) corneas. Both HCFs and HKCs were isolated as previously described. Briefly, using a surgical scalpel, the corneal epithelium and endothelium were removed. The corneal stroma was then washed in sterile PBS, cut into small pieces (approximately 2×2 mm), and placed into flasks; the cells were then allowed to adhere. Explants were grown for 2-4 weeks at 37° C./5% CO2/95% relative humidity, using Eagle's Minimum Essential Media (EMEM) supplemented with 10% fetal bovine serum (Atlanta Biologicals, Flowery Branch, GA, USA), and antibiotic/antimycotic (Anti/Anti, Life Technologies, Grand Island, NY, USA). Once confluent, cells were isolated following trypsinization, subcultured, or frozen using standard cryoprotective protocols. Three-dimensional constructs: —HCFs and HKCs were plated at a density of 1×10^6 cells/well on six-well size polycarbonate membrane inserts with 0.4-μm pores (VWR, Radnor, PA, USA). The cells were cultured in EMEM containing 10% FBS, 1% antibiotic, and stimulated with a stable Vitamin C derivative (0.5 mM 2-O-α-D-glucopyranosyl-L-ascorbic acid: Sigma-Aldrich, St. Louis, MO, USA). Cultures were grown for a total of 4 weeks and fresh media was supplied every other day for the duration of the study. Protein extraction and further analysis occurred at the 4-week timepoint.
(§2) All cultures were collected and washed twice with PBS, and total protein was isolated using 1× radioimmunoprecipitation assay (RIPA) buffer (50 mM Tris pH 8, 150 mM NaCl, 1% Triton X-100, and 0.1% SDS) containing a protease inhibitor cocktail (Sigma-Aldrich, St. Louis, MO, USA). Cell lysates were centrifuged at 4° C., and the supernatant was isolated and subjected to a Pierce BCA Protein assay (ThermoScientific, Rockford, IL, USA) for protein concentration quantification. Novex 4-20% Tris-glycine mini WedgeWell format 12-well gels (FisherScientific, Hampton, NH, USA) were electrophoresed at 130 V for 1.5 h, and transferred onto a nitrocellulose membrane at 100 V for 1 hour on ice. B lots were blocked in 5% dry milk (Great Value, Bentonville, AR, USA) for 1 h, at room temperature, with shaking. […] Results were analyzed by normalizing values to the expression of housekeeping antibody β-Actin (Abcam, Cambridge, MA, USA).

HKCs = test: as above; conditions: HKCs (cells from Keratoconus patients), 4 weeks, FIGS. 9A to 9C
From the text: as §1, §2

Healthy cells (HCFs) = test: LH/FSH ratio after PIP treatment (Western blot); conditions: PIP 50-500 ng/ml, 48 hours, in a concentration dependent manner, FIG. 12
Description: (§3) In FIG. 12, HCFs and HKCs were seeded in 12-well plates at 5×10^5 cells/well in regular media. 24 hours later media was replaced for treatment media (regular media supplemented with the treatment). The treatments consisted on five different concentrations of PIP: 50 ng/ml, 100 ng/ml, 200 ng/ml, 350 ng/ml and 500 ng/ml at a number of four wells per treatment. After 48 hours treatment finished and all the wells were wash with PBS and proteins were extracted using 1 ml of RIPA buffer 1×. Bradford assay (Thermo scientific, IL, USA) was carried out to determine the protein concentration and normalize the samples. For western blot analysis samples were mixed with loading buffer and equal amounts of protein were loaded (25 μg per lane) on a 4-20% Tris-Glycine gel (Novex, Life technologies, Carlsbad, CA) and electrophoresed at 135-140V for 1.5 hour. Each sample was run single. T hereafter, the gel was transferred on to a nitrocellulose membrane (Novex, Nitrocellulose membrane, Life Technologies, Carlsbad, CA), at 100V for 1 hour on ice. Finally, the membranes were blocked in milk (5% milk in TBST; Thermo scientific, IL, USA) for 1 hour and incubated overnight in the rocker at 4° C. with the primary antibody at 1:250 dilution. […] GAPDH (rabbit polyclonal ab9485, Abcam, Cambridge, MA) was used as housekeeping for all the targets at a dilution of 1:1000. […]

KC cells (HKCs) = test: LH/FSH ratio after PIP treatment (Western blot); conditions: PIP 50-500 ng/ml, 48 hours, in a concentration dependent manner, FIG. 12
Description: as §3

| Molecule | LH/FSH ratio modulated in vitro (HCFs) | LH/FSH ratio modulated in vitro (HKCs) | LH/FSH ratio modulation (Healthy cells (HCFs)) | LH/FSH ratio modulation (KC cells (HKCs)) |
| --- | --- | --- | --- | --- |
| C[C@]12CC[C@H](O)CC1=CC[C@@H]1[C@@H]2CC[C@]2(C)C(=O)CC[C@@H]12 [DHEA] | moving towards a disease-phenotype | “recovering” towards a healthy phenotype | – | – |
| C[C@]12CC[C@@H]3c4ccc(O)cc4CC[C@H]3[C@@H]1C[C@@H](O)[C@@H]2O [Estriol] | moving towards a disease-phenotype | “recovering” towards a healthy phenotype | – | – |
| PIP: hormonally regulated protein, a 17-kDa glycoprotein (protein, UniProt P12273 29-146, looked up) Prolactin-inducible protein: QDNTRKIIIKNFDIPKSVRPNDEVTAVLAVQTELKECMVVKTYLISSIPLQGAFNYKYTACLCDDNPKTFYWDFYTNRTVQIAAVVDVIRELGICPDDAAVIPIKNNRFYTIEILKVE | – | – | modulated | modulated |

Source: patent US12442827B2 (UNIVERSITY OF NORTH TEXAS HEALTH SCIENCE CENTER AT FORT …, priority 2019, dated 2025)
